Data published in patent US9504676B2, “Molecules inhibiting a metabolic pathway involving the Syk protein tyrosine kinase and method for identifying said molecules” (CENTRE NATIONAL DE LA RECHERCHE SCIENTIFIQUE, priority 2008, dated 2016).

System: p38 and JNK
Experiment: MAP kinase activation: p38 and JNK phosphorylation levels
Format: cell-based
Settings: high C-13 concentration
Procedure: The association of SLP-76 with Vav and/or Nck plays a role in optimal MAP kinase activation in mast cells^27.
• 1) Chemical products and antibodies. A chemical bank of 3000 molecules (a varied subset) was acquired from ChemBridge, Inc. (San Diego, Calif.). Stocks of solutions of small molecules were prepared at a rate of 10 mM in DMSO (dimethylsulphoxide), except for C-13 (methyl 2-{5-[(3-benzyl-4-oxo-2-thioxo-1,3-thiazolidin-5-ylidene)methyl]-2-furyl}benzoate, ChemBridge ID No. 6197026) prepared in DMF (dimethylformamide). Unless specified otherwise, all the reagents were supplied by Sigma. Dinitrophenyl (DNP) hapten was acquired from Calbiochem. Sepharose GammaBind G and all the secondary antibodies were supplied by GE Health Amersham Biosciences. […] The binding of G4G11 with Syk was assessed by adding the 9E10 monoclonal antibody conjugated with HRP detecting the amino acid sequence EQKLISEEDLN of human c-myc protein located at the C-terminal end of the scFv fragment. To generate Syk mutants, targeted mutagenesis was used on GST:Syk 6-242 protein and the binding of G4G11 with the mutants was assessed in the presence of 5 μM of C-13. • 3) Cells, culture conditions and functional tests. […] The level of β-hexosaminidase released was measured 10 min later and the TNF-α titration was performed by means of a cytotoxicity test on L929 cells as described previously^10, 3 hours after stimulation. […]

COC(=O)c1ccccc1-c1ccc(/C=C2/SC(=S)N(Cc3ccccc3)C2=O)o1 [Molecule C-13, methyl 2-{5-[(3-benzyl-4-oxo-2-thioxo-1,3-thiazolidin-5-ylidene)methyl]-2-furyl}benzoate]
phosphorylation levels of p38 and JNK: remain normal
